Molecules are shown by their SMILES. Structures can show the parent of a compound that is named as a salt. A value given as a limit tells only on which side of the number the result lay.

The subject of one test is sodium channels.
Test: not given
The format is cell-based. To be noted: read-out: IC50 (μM), sodium channel-inhibiting activity; rat fetal cultured hippocampal neurons, SBFI fluorescence in the presence of 4-aminopyridine, 5 minutes after addition, 1 μM tetrodotoxin = 100%.
A word on the IC50: it is the concentration that gives 50% inhibition. `CC(c1ncc[nH]c1=O)N1CCC(COc2ccccc2F)CC1` (centres unmarked) [Example 395, 3-[1-[4-(2-Fluorophenoxymethyl)piperidino]ethyl]-1H-pyrazin-2-one oxalate]: the IC50 was 6.7 µM.

Consider `O=c1[nH]ccnc1CN1CCC([S+]([O-])Cc2ccccc2F)CC1` (centres unmarked) [Example 398, 3-[4-(2-Fluorobenzylsulfinyl)piperidino]methyl-1H-pyrazin-2-one], for which the half-inhibitory concentration (IC50) was 3.4 µM.

As to `CC1(COc2ccccc2F)CCN(Cc2ncc[nH]c2=O)CC1` [Example 406, 3-[4-(2-Fluorophenoxymethyl)-4-methylpiperidino]methyl-1H-pyrazin-2-one], the half-inhibitory concentration (IC50) amounted to 3 µM.

For `O=C(Cc1cccc2c1OCC2)C1CCN(Cc2ncc[nH]c2=O)CC1` [Example 410, 3-[4-[2-(2,3-Dihydrobenzofuran-7-yl)acetyl]piperidino]methyl-1H-pyrazin-2-one], the IC50 was determined as 5.7 µM.

`O=c1[nH]ccnc1CN1CCC(SCc2ccccc2F)CC1` [Example 411, 3-[4-(2-Fluorobenzylthio)piperidino]methyl-1H-pyrazin-2-one]: the half-inhibitory concentration (IC50) was determined as 4.8 µM.

Take `O=c1[nH]ccnc1CN1CCC(/C=C/c2ccccc2OCC2CCCCC2)CC1` [Example 412, (E)-3-[4-[2-[2-(Cyclohexylmethyloxy)phenyl]vinyl]piperidino]methyl-1H-pyrazin-2-one oxalate]: the half-inhibitory concentration (IC50) came out at 1.2 µM.

For another test, the system named is left saphenous nerve of rats (ectopic firing). Briefly: Inhibition of ectopic firing. Format: in vivo. To be noted: Rattus norvegicus, iv; rats with cut left saphenous nerve, urethane anesthesia, compound via catheter in right cervical vein, number of firings in 10 seconds; read-out: Inhibition of ectopic firing (ID50). On the procedure: <Inhibition of Ectopic Firing>
(1) The inhibitory effect on ectopic firing was evaluated by the following method, with reference to Burchiel, K J., Exp. Neurol., 102, 249-253 (1988).
(2) The left saphenous nerve of rats, in which ectopic firing was observed, was cut near the knee joint, and approximately 3 mm was cut off to avoid reattachment of the cut nerve. After more than a week, the left saphenous nerve was exposed under urethane (1 g/kg body weight) anesthesia, and the proximal part up to approximately 1 cm from the cut site was detached from the surrounding tissue. A catheter was inserted in the right cervical vein beforehand for administration of the compound.
(3) The detached nerve was placed on a platinum hook electrode and wetted with liquid paraffin to avoid drying of the nerve. The electrode was connected to a microelectrode amplifier, and the change in potential was recorded from an oscilloscope through an A/D converter onto a computer. The recorded nerve firing was evaluated based on the number of firings in 10 seconds, using analyzing software (AcqKnowledge).
Turning to `Cc1ccccc1OCC1(C#N)CCN(Cc2ccc[nH]c2=O)CC1` [Example 122, 1-(2-Oxo-1,2-dihydro-3-pyridylmethyl)-4-(2-methylphenoxymethyl)piperidine-4-carbonitrile], the ED50 is less than 0.5 mg/kg.

In the case of `O=c1[nH]cccc1CN1CCC(CCc2ccccc2F)(COc2ccccc2F)CC1` [Example 127, 3-[4-(2-Fluorophenoxymethyl)-4-[2-(2-fluorophenyl)ethyl]piperidino]methyl-1H-pyridin-2-one], the ED50 was 0.5 to 1 mg/kg.

Take `Cc1ccccc1OCC1(CCc2ccccc2F)CCN(Cc2ccc[nH]c2=O)CC1` [Example 128, 3-[4-[2-(2-Fluorophenyl)ethyl]-4-(2-methylphenoxymethyl)piperidino]methyl-1H-pyridin-2-one]: the ED50 was in the range of 0.5 to 1 mg/kg.

In the case of `O=c1ccnc(CN2CCC(COc3ccccc3F)CC2)[nH]1` [Example 137, 2-[4-(2-Fluorophenoxymethyl)piperidino]methyl-3H-pyrimidin-4-one], the ED50 was in the range of 0.5 to 1 mg/kg.

Turning to `O=C(CC1CCN(Cc2ncc[nH]c2=O)CC1)c1ccccc1F` [Example 139, 3-[4-[2-(2-Fluorophenyl)-2-oxoethyl]piperidino]methyl-1H-pyrazin-2-one], the ED50 is 0.5 to 1 mg/kg.

On to `O=c1[nH]ccnc1CN1CCC(OCc2ccccc2F)CC1` [Example 141, 3-[4-(2-Fluorobenzyloxy)piperidino]methyl-1H-pyrazin-2-one], for which the ED50 is less than 0.5 mg/kg.

For the molecule `O=c1[nH]ccnc1CN1CCC(COc2ccc(F)cc2F)CC1` [Example 163, 3-[4-(2,4-Difluorophenoxymethyl)piperidino]methyl-1H-pyrazin-2-one], the ED50 was less than 0.5 mg/kg.

Regarding `O=c1[nH]ccnc1CN1CCC(CC(F)c2ccccc2F)CC1` (centres unmarked) [Example 178, 3-[4-[2-Fluoro-2-(2-fluorophenyl)ethyl]piperidino]methyl-1H-pyrazin-2-one], the ED50 was less than 0.5 mg/kg.

For the molecule `O=c1nccc(CCN2CCC(COc3ccccc3F)CC2)[nH]1` [Example 181, 4-[2-[4-(2-Fluorophenoxymethyl)piperidino]ethyl]-3H-pyrimidin-2-one], the ED50 is less than 0.5 mg/kg.

In the case of `O=c1[nH]cncc1CN1CCC(COc2ccccc2F)CC1` [Example 230, 5-[4-(2-Fluorophenoxymethyl)piperidino]methyl-3H-pyrimidin-4-one], the ED50 was less than 0.5 mg/kg.

On to `O=c1[nH]ccnc1CCN1CCC(COc2ccccc2F)CC1` [Example 232, 3-[2-[4-(2-Fluorophenoxymethyl)piperidino]ethyl]-1H-pyrazin-2-one], for which the ED50 was less than 0.5 mg/kg.

The values above are taken from patent publication US20050245527A1, “Nitrogen containing heterocyclic compounds and medicines containing the same” (priority 2002, published 2005).
